# Legend:
# [1] = test system: bovine serum albumin (BSA); assay: Adjuvant character in the aqueous phase (anti-BSA antibody titer, passive hemagglutination); type: in vivo, Swiss mice; settings: 100 μg adjuvant s.c. with 0.5 mg BSA in isotonic saline; booster day 30; six days after booster; maximum serum dilution agglutinating
# Procedure: Groups of 8 Swiss mice aged two months received, by sub-cutaneous injection (SC), 0.5 mg of antigen constituted by bovine serum albumin (BSA) with 0.1 mg or without the tested substance in an isotonic saline solution. This high dose of antigen, because it is situated at the limit of the paralyzing dose with respect to the immunitary response, results, for this reason, in a weak or zero response to the antigen only in the controls: It constitutes therefore a severe criterion to establish the activity of an adjuvant substance. Thirty days later, the mice received, by the same administrative route, a booster containing 0.1 mg of the same antigen.
# The antibody level was determined, six days after the booster, by passive hemagglutination using sheep's red blood corpuscles treated with formalin and covered with the antigen studied according to the method described by A. A. HIRATA and M. W. BRANDISS (J. Immunol., 100, 641-648, 1968).
# The antibody titer, represented by the maximum serum dilution agglutinating a given amount of sheep corpuscles, reaches a maximum at the 36th day. The results obtained for various products according to the invention are shown in Table I. By way of comparison, the results obtained with MDP are indicated, on the one hand, and for PAP-MDP, on the other hand.
# ovalbumin [2] = assay: Adjuvant character in emulsion: serum antibodies specific for ovalbumin; type: in vivo, Hartley guinea pigs; settings: emulsion with 1 mg ovalbumin, intradermal; product 50 μg in FIA; day 21; μg nitrogen precipitatable by antigen per ml serum
# Procedure: (§1) The tests were carried out on batches of 6 male Hartley guinea pigs of 350 g. The administration was done by intradermal injection into the plantar pad of each of the rear paws. Ovalbumin (constituting the antigen) in the amount of 1 mg is prepared in 0.1 ml of an emulsion of saline isotonic solution, in an oily phase constituted either by the Freund incomplete adjuvant (FIA) or by the complete adjuvant (FCA) formed by the FIA to which is added 0.1 mg of whole Mycobacterium smegmatis cells. The compound according to the invention was administered in the amount of 0.05 mg added in the emulsion containing the FIA.
# Twenty-one days after the injection, the animals were bled. On the collected serum, the content of specific antibodies of the ovalbumin was measured by precipitation of the antibody-antigen complex in the equivalence zone. The amount of protein nitrogen contained in the precipitate was estimated by the Folin method. These values express the amount, in micrograms, of nitrogen precipitatable by the antigen, per milliliter of the serum.
# ovalbumin [3] = assay: Adjuvant character in emulsion: delayed hypersensitivity cutaneous test; type: in vivo, Hartley guinea pigs; settings: emulsion with 1 mg ovalbumin, intradermal; product 50 μg in FIA; challenge day 18, read 48 hours later
# Procedure: as §1
# Eighteen days after this immunization, possible delayed hypersensitivity reactions to the antigen were sought by injecting by the intradermal route 0.01 mg of ovalbumin in the side of the animals, and 48 hours later, the reaction of the point of injection was observed. The diameter in millimeters of the reaction thus-caused was measured.
# Klebsiella pneumoniae = assay: Anti-Klebsiella pneumoniae activity in the adult mouse; type: in vivo; settings: adult mouse; for % Protection / Number of mice D + 3 (survivors) / Number of mice D + 5 (survivors) / Number of mice D + 10 (survivors): treatment -24 h, i.v., 100 μg
# Procedure: An experimental procedure was studied by CHEDID L. et coll. in "Proc. Natl. Acad. Sci. USA," 1977, 74: 2089, which permits the stimulating effect or not to be observed of substances studied with regard to immune defenses according as they protect or not the mice to which they are injected, the mice being inoculated by a dose of Klebsiella pneumoniae which results in the death of almost all of the controls.
# The testing procedure is described in the article CHEDID L. et coll., Proc. Natl. Acad. Sci. USA, 74:2089.
# It was shown that a dose of about 10^4 Klebsiella pneumoniae, injected by the intramuscular route in mice, results in the gradual death of a considerable part, if not all, of the animals in the week following the inoculation. After 8 days, the survival of the animals was definitely achieved.
# The survival of groups of inoculated mice under the above conditions and treated by means of the products according to the invention was followed.
# For these tests, hybrid mice (C57B1/6×AKR) FI bred at the PASTEUR INSTITUTE, from strains derived from the CNRS breeding station at ORLEANS, were used.
# The infection by Klebsiella pneumoniae, a strain of the capsular 2, biotype d type, was done from a culture of 16 hours in a medium for pneumococci (No. 53515, PASTEUR INSTITUTE).
# Various treatment conditions and tests have been studied. Thus, the treatment was carried out either 24 hours before the test, or 1 hour after the latter. The influence of the infecting dose and the mode of administration has also been studied. In particular, the protective properties of the products have been determined in the case of an injection of Klebsiella pneumoniae by the intravenous route, which corresponds to a severe infection.
# In the majority of cases, the tests have been carried out on mice aged from 5 to 6 weeks. In one part of the tests, on the other hand, mice 7 days old were used, since the immune responses, in very young subjects are substantially different, and, on the whole, much more difficult to stimulate than those that are observed in adult subjects.
# The products are administered in apyrogenic physiological solution in the proportion of 0.2 ml for intravenous administration to adult mice and 0.05 ml for sub-cutaneous injection to mice 7 days old. The controls received the solution alone.
# The percentage protection indicated corresponds to the difference in percentages of survivors of the treated group with respect to the control group.
smiles,measurement,setting,value
"CC(=O)N[C@H]1[C@H](Oc2ccc(N)cc2)O[C@H](CO)[C@@H](O)[C@@H]1O[C@H](C)C(=O)N[C@@H](C)C(=O)N[C@H](CCC(=O)O)C(N)=O [PAP-MDP, β-D-p.aminophenyl glycoside of N-acetyl-muramyl-L-alanyl-D-isoglutamine, reference compound]",Antibody titer,[1],11
same,Serum antibodies,ovalbumin [2],3480 µg/mL
same,Cutaneous test diameter in mm,ovalbumin [3],14.4 mm
same,anti-infectious activity with respect to Klebsiella pneumoniae (in words),Klebsiella pneumoniae; summary of Table 3,practically not
same,% Protection,Klebsiella pneumoniae; infection i.m. 1.5 × 10^4,19%
same,Number of mice D + 3 (survivors),Klebsiella pneumoniae; infection i.m. 1.5 × 10^4,28
same,Number of mice D + 5 (survivors),Klebsiella pneumoniae; infection i.m. 1.5 × 10^4,17
same,Number of mice D + 10 (survivors),Klebsiella pneumoniae; infection i.m. 1.5 × 10^4,11
same,% Protection,Klebsiella pneumoniae; infection i.v. 1.5 × 10^3,0%
same,Number of mice D + 3 (survivors),Klebsiella pneumoniae; infection i.v. 1.5 × 10^3,6
same,Number of mice D + 5 (survivors),Klebsiella pneumoniae; infection i.v. 1.5 × 10^3,2
same,Number of mice D + 10 (survivors),Klebsiella pneumoniae; infection i.v. 1.5 × 10^3,2

# From patent publication US4461761A, “Oligomers of compounds of the muramyl-peptide type and medicaments containing them” (priority 1978, dated 1984)
